Measured values as given in the kinase profiling compilation of Christmann-Franck et al. (2016).

What was measured:
MST4 (human) = MST4 (human) (UniProt Q9P289)
[1] = test system: SGK1 (human), O00141 [S422D]
SYK (human) = SYK (human) (UniProt P43405)
ABL2 (human) = ABL2 (human) (UniProt P42684); experiment: KINOMEscan competition binding; details: compound 10.0 µM
BRSK2 (human) = BRSK2 (human) (UniProt Q8IWQ3); experiment: KINOMEscan competition binding; details: compound 10.0 µM
CDK5 (human) = CDK5 (human) (UniProt Q00535); experiment: KINOMEscan competition binding; details: compound 10.0 µM
DAPK1 (human) = DAPK1 (human) (UniProt P53355); experiment: KINOMEscan competition binding; details: compound 10.0 µM
DAPK3 (human) = DAPK3 (human) (UniProt O43293); experiment: KINOMEscan competition binding; details: compound 10.0 µM
DSTYK (human) = DSTYK (human) (UniProt Q6XUX3); experiment: KINOMEscan competition binding; details: compound 10.0 µM
EPHA5 (human) = EPHA5 (human) (UniProt P54756); experiment: KINOMEscan competition binding; details: compound 10.0 µM
EPHB1 (human) = EPHB1 (human) (UniProt P54762); experiment: KINOMEscan competition binding; details: compound 10.0 µM
[2] = test system: FGFR3 (human), P22607 [G697C]; experiment: KINOMEscan competition binding; details: compound 10.0 µM
FGR (human) = FGR (human) (UniProt P09769); experiment: KINOMEscan competition binding; details: compound 10.0 µM
GAK (human) = GAK (human) (UniProt O14976); experiment: KINOMEscan competition binding; details: compound 10.0 µM
HIPK1 (human) = HIPK1 (human) (UniProt Q86Z02); experiment: KINOMEscan competition binding; details: compound 10.0 µM
KIT (human) = KIT (human) (UniProt P10721); experiment: KINOMEscan competition binding; details: compound 10.0 µM
[3] = test system: KIT (human), P10721 [L576P]; experiment: KINOMEscan competition binding; details: compound 10.0 µM
MAK (human) = MAK (human) (UniProt P20794); experiment: KINOMEscan competition binding; details: compound 10.0 µM
Chain of MAK (human) (P20794 whole entry, looked up): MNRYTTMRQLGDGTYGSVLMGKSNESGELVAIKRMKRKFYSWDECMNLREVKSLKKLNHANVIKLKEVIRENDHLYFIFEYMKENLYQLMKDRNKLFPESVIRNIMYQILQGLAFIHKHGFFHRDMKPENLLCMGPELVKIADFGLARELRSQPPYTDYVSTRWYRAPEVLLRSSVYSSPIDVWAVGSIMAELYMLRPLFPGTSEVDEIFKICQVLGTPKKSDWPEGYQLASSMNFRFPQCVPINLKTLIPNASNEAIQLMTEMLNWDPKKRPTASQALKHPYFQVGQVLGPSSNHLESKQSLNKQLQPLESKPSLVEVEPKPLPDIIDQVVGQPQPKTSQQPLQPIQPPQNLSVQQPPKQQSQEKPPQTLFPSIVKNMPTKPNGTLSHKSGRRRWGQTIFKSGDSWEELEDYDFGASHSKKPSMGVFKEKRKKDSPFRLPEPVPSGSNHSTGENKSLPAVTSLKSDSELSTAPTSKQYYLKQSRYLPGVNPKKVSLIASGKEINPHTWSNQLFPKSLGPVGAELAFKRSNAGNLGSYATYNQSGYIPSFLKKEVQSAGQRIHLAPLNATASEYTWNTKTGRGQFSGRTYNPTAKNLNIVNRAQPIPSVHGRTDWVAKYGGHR

MAPK1 (human) = MAPK1 (human) (UniProt P28482); experiment: KINOMEscan competition binding; details: compound 10.0 µM
MKNK2 (human) = MKNK2 (human) (UniProt Q9HBH9); experiment: KINOMEscan competition binding; details: compound 10.0 µM
Chain of MKNK2 (human) (Q9HBH9 whole entry, looked up): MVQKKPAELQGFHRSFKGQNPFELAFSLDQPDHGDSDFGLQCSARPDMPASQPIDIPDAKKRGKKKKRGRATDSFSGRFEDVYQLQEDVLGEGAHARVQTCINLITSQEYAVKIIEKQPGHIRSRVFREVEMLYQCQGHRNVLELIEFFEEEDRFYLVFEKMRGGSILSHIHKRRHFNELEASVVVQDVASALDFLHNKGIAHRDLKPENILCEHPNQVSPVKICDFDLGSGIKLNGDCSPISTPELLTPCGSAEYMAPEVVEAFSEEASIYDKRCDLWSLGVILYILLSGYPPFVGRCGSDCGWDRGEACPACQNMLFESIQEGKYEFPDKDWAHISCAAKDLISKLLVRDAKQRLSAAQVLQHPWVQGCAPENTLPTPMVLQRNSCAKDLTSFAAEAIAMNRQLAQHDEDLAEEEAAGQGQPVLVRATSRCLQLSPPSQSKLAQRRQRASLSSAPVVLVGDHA

MYO3A (human) = MYO3A (human) (UniProt Q8NEV4); experiment: KINOMEscan competition binding; details: compound 10.0 µM
NEK4 (human) = NEK4 (human) (UniProt P51957); experiment: KINOMEscan competition binding; details: compound 10.0 µM
NEK9 (human) = NEK9 (human) (UniProt Q8TD19); experiment: KINOMEscan competition binding; details: compound 10.0 µM
Chain of NEK9 (human) (Q8TD19 whole entry, looked up): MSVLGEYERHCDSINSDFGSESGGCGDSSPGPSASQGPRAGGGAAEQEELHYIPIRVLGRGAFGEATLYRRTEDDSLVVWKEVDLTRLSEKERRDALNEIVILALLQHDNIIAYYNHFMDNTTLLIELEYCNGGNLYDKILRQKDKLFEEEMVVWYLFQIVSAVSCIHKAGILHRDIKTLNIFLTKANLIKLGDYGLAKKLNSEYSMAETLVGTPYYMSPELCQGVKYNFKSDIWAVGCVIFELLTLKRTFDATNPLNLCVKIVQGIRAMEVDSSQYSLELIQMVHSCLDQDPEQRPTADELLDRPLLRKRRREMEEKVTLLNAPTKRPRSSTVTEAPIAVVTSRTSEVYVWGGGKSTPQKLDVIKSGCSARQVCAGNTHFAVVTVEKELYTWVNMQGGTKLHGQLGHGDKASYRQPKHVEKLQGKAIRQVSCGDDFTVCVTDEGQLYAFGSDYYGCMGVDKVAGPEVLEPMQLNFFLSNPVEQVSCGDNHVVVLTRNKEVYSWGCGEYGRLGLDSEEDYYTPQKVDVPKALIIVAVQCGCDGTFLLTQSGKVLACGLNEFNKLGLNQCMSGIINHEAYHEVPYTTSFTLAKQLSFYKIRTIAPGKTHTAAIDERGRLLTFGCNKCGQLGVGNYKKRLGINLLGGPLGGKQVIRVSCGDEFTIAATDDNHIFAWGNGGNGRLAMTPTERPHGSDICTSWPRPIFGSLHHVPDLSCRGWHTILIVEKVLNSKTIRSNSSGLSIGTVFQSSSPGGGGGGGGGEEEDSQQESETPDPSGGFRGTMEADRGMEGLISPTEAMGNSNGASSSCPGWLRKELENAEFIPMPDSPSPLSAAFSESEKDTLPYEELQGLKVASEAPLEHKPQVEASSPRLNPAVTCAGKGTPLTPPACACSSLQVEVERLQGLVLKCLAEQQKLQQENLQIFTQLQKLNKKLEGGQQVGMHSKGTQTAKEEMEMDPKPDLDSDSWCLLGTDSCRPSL

NTRK1 (human) = NTRK1 (human) (UniProt P04629); experiment: KINOMEscan competition binding; details: compound 10.0 µM
PIP4K2C (human) = PIP4K2C (human) (UniProt Q8TBX8); experiment: KINOMEscan competition binding; details: compound 10.0 µM
Chain of PIP4K2C (human) (Q8TBX8 whole entry, looked up): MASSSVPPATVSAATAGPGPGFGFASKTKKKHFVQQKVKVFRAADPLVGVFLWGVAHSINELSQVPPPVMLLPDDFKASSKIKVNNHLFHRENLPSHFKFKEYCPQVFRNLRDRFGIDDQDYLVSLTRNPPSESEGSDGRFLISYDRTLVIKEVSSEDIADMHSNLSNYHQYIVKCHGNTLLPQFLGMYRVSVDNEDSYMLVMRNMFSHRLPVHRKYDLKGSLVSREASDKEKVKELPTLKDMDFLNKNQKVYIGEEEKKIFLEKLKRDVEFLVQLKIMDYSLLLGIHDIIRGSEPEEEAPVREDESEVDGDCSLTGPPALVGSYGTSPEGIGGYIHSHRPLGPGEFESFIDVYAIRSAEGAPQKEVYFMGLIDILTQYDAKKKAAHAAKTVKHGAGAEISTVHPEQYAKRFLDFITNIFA

PKMYT1 (human) = PKMYT1 (human) (UniProt Q99640); experiment: KINOMEscan competition binding; details: compound 10.0 µM
Chain of PKMYT1 (human) (Q99640 whole entry, looked up): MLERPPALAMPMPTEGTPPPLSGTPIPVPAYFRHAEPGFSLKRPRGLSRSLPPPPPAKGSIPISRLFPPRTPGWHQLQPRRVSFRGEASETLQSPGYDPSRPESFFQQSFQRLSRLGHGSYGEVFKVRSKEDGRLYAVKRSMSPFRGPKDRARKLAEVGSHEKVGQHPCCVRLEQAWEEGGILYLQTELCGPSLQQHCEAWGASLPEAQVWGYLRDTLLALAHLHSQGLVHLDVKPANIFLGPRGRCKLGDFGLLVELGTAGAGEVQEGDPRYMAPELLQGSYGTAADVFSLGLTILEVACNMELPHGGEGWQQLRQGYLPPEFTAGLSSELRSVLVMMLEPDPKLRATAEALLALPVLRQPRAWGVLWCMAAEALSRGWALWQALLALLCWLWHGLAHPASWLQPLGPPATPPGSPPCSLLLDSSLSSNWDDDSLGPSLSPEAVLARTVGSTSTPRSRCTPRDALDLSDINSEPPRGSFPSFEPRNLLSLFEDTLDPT

RIPK2 (human) = RIPK2 (human) (UniProt O43353); experiment: KINOMEscan competition binding; details: compound 10.0 µM
STK16 (human) = STK16 (human) (UniProt O75716); experiment: KINOMEscan competition binding; details: compound 10.0 µM
TAOK1 (human) = TAOK1 (human) (UniProt Q7L7X3); experiment: KINOMEscan competition binding; details: compound 10.0 µM
TESK1 (human) = TESK1 (human) (UniProt Q15569); experiment: KINOMEscan competition binding; details: compound 10.0 µM
TGFBR2 (human) = TGFBR2 (human) (UniProt P37173); experiment: KINOMEscan competition binding; details: compound 10.0 µM
TYRO3 (human) = TYRO3 (human) (UniProt Q06418); experiment: KINOMEscan competition binding; details: compound 10.0 µM
YSK4 (human) = YSK4 (human) (UniProt Q56UN5); experiment: KINOMEscan competition binding; details: compound 10.0 µM
PI4KA (human) = PI4KA (human) (UniProt P42356)
Chain of PI4KA (human) (P42356 whole entry, looked up): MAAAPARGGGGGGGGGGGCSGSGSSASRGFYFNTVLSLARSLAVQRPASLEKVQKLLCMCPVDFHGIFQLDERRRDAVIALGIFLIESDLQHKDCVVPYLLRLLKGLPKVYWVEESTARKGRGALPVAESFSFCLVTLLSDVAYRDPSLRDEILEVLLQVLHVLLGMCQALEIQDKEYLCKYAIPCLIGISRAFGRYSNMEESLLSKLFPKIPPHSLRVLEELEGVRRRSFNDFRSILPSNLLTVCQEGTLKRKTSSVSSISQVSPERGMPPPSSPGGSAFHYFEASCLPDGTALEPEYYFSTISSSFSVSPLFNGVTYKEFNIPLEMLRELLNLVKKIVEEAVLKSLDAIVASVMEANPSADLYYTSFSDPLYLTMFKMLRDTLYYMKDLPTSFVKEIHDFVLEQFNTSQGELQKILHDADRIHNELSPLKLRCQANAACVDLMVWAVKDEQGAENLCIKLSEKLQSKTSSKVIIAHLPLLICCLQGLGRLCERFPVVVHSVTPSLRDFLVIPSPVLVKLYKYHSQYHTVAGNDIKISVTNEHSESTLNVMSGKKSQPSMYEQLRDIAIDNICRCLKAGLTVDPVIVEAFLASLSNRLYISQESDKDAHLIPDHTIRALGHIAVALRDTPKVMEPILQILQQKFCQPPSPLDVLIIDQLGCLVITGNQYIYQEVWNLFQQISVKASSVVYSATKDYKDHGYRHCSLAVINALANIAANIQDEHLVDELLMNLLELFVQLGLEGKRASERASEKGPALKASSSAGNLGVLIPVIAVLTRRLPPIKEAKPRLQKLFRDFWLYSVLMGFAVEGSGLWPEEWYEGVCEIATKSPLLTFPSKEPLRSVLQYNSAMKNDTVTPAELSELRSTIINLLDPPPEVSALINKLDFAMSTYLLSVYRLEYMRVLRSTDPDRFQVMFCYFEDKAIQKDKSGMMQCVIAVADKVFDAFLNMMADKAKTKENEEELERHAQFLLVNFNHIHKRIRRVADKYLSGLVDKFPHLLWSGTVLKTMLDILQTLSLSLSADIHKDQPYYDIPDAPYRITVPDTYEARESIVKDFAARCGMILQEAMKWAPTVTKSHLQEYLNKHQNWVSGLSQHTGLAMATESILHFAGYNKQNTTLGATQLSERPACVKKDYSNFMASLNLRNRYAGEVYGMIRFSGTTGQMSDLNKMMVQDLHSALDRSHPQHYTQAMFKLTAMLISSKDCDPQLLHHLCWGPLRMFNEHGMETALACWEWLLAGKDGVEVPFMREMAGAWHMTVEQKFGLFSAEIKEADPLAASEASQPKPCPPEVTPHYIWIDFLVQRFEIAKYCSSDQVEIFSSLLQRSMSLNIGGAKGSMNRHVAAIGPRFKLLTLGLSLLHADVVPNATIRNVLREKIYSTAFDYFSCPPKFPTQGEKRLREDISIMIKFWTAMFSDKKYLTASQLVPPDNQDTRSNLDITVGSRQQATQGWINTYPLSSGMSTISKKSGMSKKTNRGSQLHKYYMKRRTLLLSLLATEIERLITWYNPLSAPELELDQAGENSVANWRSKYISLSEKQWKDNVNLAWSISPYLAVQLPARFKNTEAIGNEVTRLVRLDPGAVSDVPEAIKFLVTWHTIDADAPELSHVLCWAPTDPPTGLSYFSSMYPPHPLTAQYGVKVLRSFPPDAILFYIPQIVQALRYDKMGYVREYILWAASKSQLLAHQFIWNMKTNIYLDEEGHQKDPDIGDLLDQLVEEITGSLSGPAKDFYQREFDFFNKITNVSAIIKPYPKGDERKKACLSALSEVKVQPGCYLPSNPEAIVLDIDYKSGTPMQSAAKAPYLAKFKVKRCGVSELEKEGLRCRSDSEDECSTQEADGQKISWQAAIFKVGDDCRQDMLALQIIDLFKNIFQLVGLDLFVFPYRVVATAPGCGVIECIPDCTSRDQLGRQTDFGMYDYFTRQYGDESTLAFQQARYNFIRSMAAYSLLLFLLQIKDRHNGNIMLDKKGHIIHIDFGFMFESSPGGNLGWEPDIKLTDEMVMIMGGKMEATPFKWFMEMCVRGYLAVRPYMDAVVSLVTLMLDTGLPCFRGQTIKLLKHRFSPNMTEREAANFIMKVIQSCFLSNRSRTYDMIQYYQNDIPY

PI4KB (human) = PI4KB (human) (UniProt Q9UBF8)
PIK3C2A (human) = PIK3C2A (human) (UniProt O00443)
PIK3C2B (human) = PIK3C2B (human) (UniProt O00750)
PIK3C3 (human) = PIK3C3 (human) (UniProt Q8NEB9)
[4] = test system: FLT3 (human), P36888 [ITD]; experiment: KINOMEscan competition binding; details: compound 10.0 µM
[5] = test system: PIK3CA (human), P42336 [E545K]; experiment: KINOMEscan competition binding; details: compound 10.0 µM

Work on `CC(C)n1nc(-c2cc3cc(O)ccc3[nH]2)c2c(N)ncnc21` yielded a per cent of control (MST4 (human); compound 1.0 µM) of 42%, a per cent of control (MST4 (human); compound 10.0 µM) of 13% and a per cent of control ([1]; compound 1.0 µM) of 85%. For the same molecule, the per cent of control ([1]; compound 10.0 µM) was 69%, the per cent of control (SYK (human); compound 1.0 µM) was 89% and the per cent of control (SYK (human); compound 10.0 µM) was 61%. For the same molecule, the kinase still bound, per cent of control (ABL2 (human)) was 28%, the kinase still bound, per cent of control (BRSK2 (human)) was 0.95% and the per cent of control (CDK5 (human)) was 100%. For the same molecule, the kinase still bound, per cent of control (DAPK1 (human)) was 3%, the kinase still bound, per cent of control (DAPK3 (human)) was 2.8% and the kinase still bound, per cent of control (DSTYK (human)) was 5.8%. It also gave a kinase still bound, per cent of control (EPHA5 (human)) of 55%, a kinase still bound, per cent of control (EPHB1 (human)) of 49% and a kinase still bound, per cent of control [2] of 11%. It also gave a kinase still bound, per cent of control (FGR (human)) of 5.6%, a kinase still bound, per cent of control (GAK (human)) of 6.2% and a kinase still bound, per cent of control (HIPK1 (human)) of 1.9%. For the same molecule, the kinase still bound, per cent of control (KIT (human)) was 0.8%, the kinase still bound, per cent of control [3] was 0.8% and the kinase still bound, per cent of control (MAK (human)) was 99%. It also gave a kinase still bound, per cent of control (MAPK1 (human)) of 100%, a kinase still bound, per cent of control (MKNK2 (human)) of 4.5% and a kinase still bound, per cent of control (MYO3A (human)) of 12%. It also gave a kinase still bound, per cent of control (NEK4 (human)) of 90%, a kinase still bound, per cent of control (NEK9 (human)) of 100% and a kinase still bound, per cent of control (NTRK1 (human)) of 46%. The kinase still bound, per cent of control (PIP4K2C (human)) was 9.9%, the kinase still bound, per cent of control (PKMYT1 (human)) was 37% and the kinase still bound, per cent of control (RIPK2 (human)) was 0.8%. It also gave a kinase still bound, per cent of control (STK16 (human)) of 34%, a kinase still bound, per cent of control (TAOK1 (human)) of 0.2% and a kinase still bound, per cent of control (TESK1 (human)) of 17%. The kinase still bound, per cent of control (TGFBR2 (human)) was 2.8%, the kinase still bound, per cent of control (TYRO3 (human)) was 77% and the kinase still bound, per cent of control (YSK4 (human)) was 0%. It also gave an IC50 (PI4KA (human)) greater than 10 µM, an IC50 (PI4KB (human)) of 2.13 µM and an IC50 (PIK3C2A (human)) of 0.866 µM. It also gave an IC50 (PIK3C2B (human)) of 0.0829 µM and an IC50 (PIK3C3 (human)) greater than 10 µM.

`COC(=O)Nc1ccc(-c2nc(N3CCOCC3)c3cnn(C4CCN(C(=O)OC)CC4)c3n2)cc1` was tested, and the per cent of control (MST4 (human); compound 1.0 µM) was 88%, the per cent of control (MST4 (human); compound 10.0 µM) was 82% and the per cent of control ([1]; compound 1.0 µM) was 85%. For the same molecule, the per cent of control ([1]; compound 10.0 µM) was 77%, the per cent of control (SYK (human); compound 1.0 µM) was 124% and the per cent of control (SYK (human); compound 10.0 µM) was 127%. The kinase still bound, per cent of control (ABL2 (human)) was 100%, the kinase still bound, per cent of control (BRSK2 (human)) was 100% and the per cent of control (CDK5 (human)) was 100%. For the same molecule, the kinase still bound, per cent of control (DAPK1 (human)) was 100%, the kinase still bound, per cent of control (DAPK3 (human)) was 92% and the kinase still bound, per cent of control (DSTYK (human)) was 100%. The kinase still bound, per cent of control (EPHA5 (human)) was 100%, the kinase still bound, per cent of control (EPHB1 (human)) was 100% and the kinase still bound, per cent of control [2] was 100%. It also gave a kinase still bound, per cent of control (FGR (human)) of 96%, a kinase still bound, per cent of control [4] of 100% and a kinase still bound, per cent of control (GAK (human)) of 94%. It also gave a kinase still bound, per cent of control (HIPK1 (human)) of 57%, a kinase still bound, per cent of control (KIT (human)) of 100% and a kinase still bound, per cent of control [3] of 100%. For the same molecule, the kinase still bound, per cent of control (MAK (human)) was 100%, the kinase still bound, per cent of control (MAPK1 (human)) was 100% and the kinase still bound, per cent of control (MKNK2 (human)) was 40%. The kinase still bound, per cent of control (MYO3A (human)) was 100%, the kinase still bound, per cent of control (NEK4 (human)) was 90% and the kinase still bound, per cent of control (NEK9 (human)) was 98%. For the same molecule, the kinase still bound, per cent of control (NTRK1 (human)) was 71%, the kinase still bound, per cent of control [5] was 4.9% and the kinase still bound, per cent of control (PIP4K2C (human)) was 12%. For the same molecule, the kinase still bound, per cent of control (PKMYT1 (human)) was 100%, the kinase still bound, per cent of control (RIPK2 (human)) was 65% and the kinase still bound, per cent of control (STK16 (human)) was 77%. For the same molecule, the kinase still bound, per cent of control (TAOK1 (human)) was 83%, the kinase still bound, per cent of control (TESK1 (human)) was 91% and the kinase still bound, per cent of control (TGFBR2 (human)) was 78%. For the same molecule, the kinase still bound, per cent of control (TYRO3 (human)) was 100%, the kinase still bound, per cent of control (YSK4 (human)) was 75% and the IC50 (PI4KA (human)) was greater than 3.33 µM. It also gave an IC50 (PI4KB (human)) greater than 10 µM, an IC50 (PIK3C2A (human)) greater than 10 µM and an IC50 (PIK3C2B (human)) of 5.15 µM. For the same molecule, the IC50 (PIK3C3 (human)) was greater than 10 µM.

For `CCC(=O)N1CCN(c2ccc(-n3c(=O)ccc4cnc5ccc(-c6cnc7ccccc7c6)cc5c43)cc2C(F)(F)F)CC1`, the per cent of control (MST4 (human); compound 1.0 µM) was 96%, the per cent of control (MST4 (human); compound 10.0 µM) was 89% and the per cent of control ([1]; compound 1.0 µM) was 79%. The per cent of control ([1]; compound 10.0 µM) was 60%, the per cent of control (SYK (human); compound 1.0 µM) was 131% and the per cent of control (SYK (human); compound 10.0 µM) was 68%. For the same molecule, the kinase still bound, per cent of control (ABL2 (human)) was 99%, the kinase still bound, per cent of control (BRSK2 (human)) was 76% and the per cent of control (CDK5 (human)) was 100%. The kinase still bound, per cent of control (DAPK1 (human)) was 96%, the kinase still bound, per cent of control (DAPK3 (human)) was 82% and the kinase still bound, per cent of control (DSTYK (human)) was 28%. The kinase still bound, per cent of control (EPHA5 (human)) was 100%, the kinase still bound, per cent of control (EPHB1 (human)) was 100% and the kinase still bound, per cent of control (FGR (human)) was 78%. The kinase still bound, per cent of control [4] was 29%, the kinase still bound, per cent of control (GAK (human)) was 57% and the kinase still bound, per cent of control (HIPK1 (human)) was 63%. The kinase still bound, per cent of control [3] was 48%, the kinase still bound, per cent of control (MAK (human)) was 68% and the kinase still bound, per cent of control (MAPK1 (human)) was 100%. It also gave a kinase still bound, per cent of control (MKNK2 (human)) of 54%, a kinase still bound, per cent of control (MYO3A (human)) of 100% and a kinase still bound, per cent of control (NEK4 (human)) of 86%. It also gave a kinase still bound, per cent of control (NEK9 (human)) of 100%, a kinase still bound, per cent of control (NTRK1 (human)) of 64% and a kinase still bound, per cent of control [5] of 0.6%. For the same molecule, the kinase still bound, per cent of control (PIP4K2C (human)) was 58%, the kinase still bound, per cent of control (PKMYT1 (human)) was 52% and the kinase still bound, per cent of control (RIPK2 (human)) was 44%. The kinase still bound, per cent of control (STK16 (human)) was 18%, the kinase still bound, per cent of control (TAOK1 (human)) was 58% and the kinase still bound, per cent of control (TESK1 (human)) was 58%. The kinase still bound, per cent of control (TGFBR2 (human)) was 77%, the kinase still bound, per cent of control (TYRO3 (human)) was 31% and the kinase still bound, per cent of control (YSK4 (human)) was 38%. For the same molecule, the IC50 (PI4KA (human)) was greater than 10 µM.
